Drawing on patent US20210355106A1, “NEW AMINO-PYRIMIDONYL-PIPERIDINYL DERIVATIVES, A PROCESS FOR THEIR PREPARATION AND PHARMACEUTICAL COMPOSITIONS CONTAINING THEM” (LES LABORATOIRES SERVIER, priority 2018, published 2021), this text covers Ki and IC50 for 19 compounds.

A word on the Ki: it is the equilibrium dissociation constant of an inhibitor or competing ligand from its target. Read a low Ki as higher affinity. Broadly, the IC50 is the point on the concentration scale where inhibition reaches its midpoint. A lower IC50 goes with greater potency.

One assay deals with T1, USP7 (Homo sapiens, UniProt Q93009, C315A).
T1 construct: 0.25 nM His-His-USP7 (aa208-560, |C315A|) was incubated with compound; His-His (N)
Kind of assay: Inhibition of USP7 by Fluorescence Intensity (FLINT) readings, Ubiquitin-Rhodamine-110 substrate. The assay is classed as biochemical. Conditions: 0.25 nM His-His-USP7 (aa208-560), 60 minutes at 30° C. preincubation; Ki determined from IC50 according to Cer et al. On the procedure:
USP7 activity was measured using Rhodamine-110 c-terminal labelled Ubiquitin as a substrate (UbiQ Bio), Incubation with USP7 results in the release of Rhodamine-110 leading to an increase in fluorescence which can be used in the continuous measurement of USP7 activity.
The USP7 reactions were performed in a 50 μL volume, in 384 well black solid low binding plates (Corning #3575). The reaction buffer consisted of 100 mM Bicine pH 8.0, 0.01% TritonX 100, 1 mM TCEP, and 10% DMSO.
0.25 nM His-His-USP7 (aa208-560, |C315A|) was incubated with compound (final concentration 10% DMSO) for 60 minutes at 30° C. The reaction was then initiated by the addition of 50) nM Ubiquitin-Rhodamine-110 substrate or 4 μM Ubiquitin-Rhodamine-110 substrate and the plate read every 3 minutes for 21 minutes to measure the release of Rhodamine-110. Fluorescence Intensity (FLINT) readings were measured using a Biomek Neo plate reader (Ex.485 nm, Em.535 nm).
The inhibition of increasing doses of compound was expressed as a percentage reduction in kinetic rate compared to the kinetic rates established between ‘DMSO only’ and ‘total inhibition’ controls (no USP7). The inhibitory concentrations that gave a 50% reduction in kinetic rate (IC50) were determined, from 11-point dose response curves, in XL-Fit using a 4-Parameter Logistic Model 205 (Sigmoidal Dose-Response Model). The K, values were determined from the IC50 values according to Cer et al. Nucleic Acids Res. 2009, July 1; 37 (WebServer issue): W441-W445.

In assay [1] the test system is Z138 mantle cell lymphoma tumour cell lines. Kind of assay: In vitro cytotoxicity, MTT assay. It is filed as cell-based. Conditions: Homo sapiens, Z-138; Z138 cells, exposed to the test compounds for 96 hours. On the procedure:
The cytotoxicity studies were evaluated by MTT [3-(4,5-dimethylthiaxol-2-yl)-2,5-diphenyltetrazolium bromide|assay and carried out on Z138 mantle cell lymphoma tumour cell lines. The cells are distributed onto microplates and exposed to the test compounds for 96 hours. MTT is then added for 4 hours and converted by NAD(P)H-dependent cellular oxidoreductase enzymes in forma/an, which has a purple color. The viable cell number is proportional to the production of formazan salts and cell viability can be quantified by the absorbance of the solution at 540 nm with a spectrophotometer (Carmichael et al., Cancer Res. 1987, 47, 936-942).
(In general: Tetrazolium assays rely on reduction of a dye to a coloured formazan, in cell work by metabolically active cells.)

Each structure is given as a SMILES string.

T1 sequence (Q93009 208-560 C315A): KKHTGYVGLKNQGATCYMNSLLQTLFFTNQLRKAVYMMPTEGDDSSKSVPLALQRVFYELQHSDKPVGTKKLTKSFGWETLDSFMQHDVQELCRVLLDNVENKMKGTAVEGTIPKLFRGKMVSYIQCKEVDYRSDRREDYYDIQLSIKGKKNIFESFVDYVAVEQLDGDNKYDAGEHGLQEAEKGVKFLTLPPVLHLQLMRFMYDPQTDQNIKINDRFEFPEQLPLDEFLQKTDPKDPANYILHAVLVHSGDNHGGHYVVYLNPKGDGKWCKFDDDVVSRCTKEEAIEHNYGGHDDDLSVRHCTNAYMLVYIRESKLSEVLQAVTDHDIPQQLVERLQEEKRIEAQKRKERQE

As for `Cc1nccc(CN2CC[C@@H](C(=O)N3CC[C@](O)(Cn4cnc(Oc5ccc(F)cc5)c(N)c4=O)C(F)(F)C3)[C@H](c3ccccc3)C2)n1` [Example 13, 5-amino-3-{[(4S)-3,3-difluoro-4-hydroxy-1-{(3R,4R)-1-[(2-methylpyrimidin-4-yl)methyl]-3-phenylpiperidine-4-carbonyl]piperidin-4-yl]methyl)-6-(4-fluorophenoxy)pyrimidin-4(31)-one], the Ki on USP7 turned out to be 23.3 nM. In addition, in assay [1], the midpoint of inhibition, the IC50, lay at 10.6 nM.

As for `Cc1ccc(-c2nc(C)c(C(=O)N3CC[C@@H](C(=O)N4CCC(O)(Cn5cnc(Oc6ccc(Cl)cc6)c(N)c5=O)CC4)[C@H](c4ccccc4)C3)s2)cn1` [Example 22, 5-amino-6-(4-chlorophenoxy)-3-[(4-hydroxy-1-{(3R,4R)-1-[4-methyl-2-(6-methylpyridin-3-yl)-1,3-thiazole-5-carbonyl]-3-phenylpiperidine-4-carbonyl}piperidin-4-yl)methyl]pyrimidin-4(3H)-one], the affinity at USP7, expressed as Ki, was 3 nM. The same compound displayed an IC50 in assay [1] of 4 nM.

In the case of `COc1cc(Cl)cc(Oc2ncn(CC3(O)CCN(C(=O)[C@@H]4CCN(C(=O)c5sc(-c6ccc(C)nc6)nc5C)C[C@H]4c4ccccc4)CC3)c(=O)c2N)c1` [Example 23, 5-amino-6-(3-chloro-5-methoxyphenoxy)-3-((4-hydroxy-1-((3R,4R)-1-[4-methyl-2-(6-methylpyridin-3-yl)-1,3-thiazole-5-carbonyl]-3-phenylpiperidine-4-carbonyl}piperidin-4-yl)methyl]pyrimidin-4(3/I)-one], the Ki at USP7 amounted to 7.46 nM. The IC50 in assay [1] came out at 2.77 nM.

`Cc1ccc(-c2nc(C)c(C(=O)N3CC[C@@H](C(=O)N4CCC(O)(Cn5cnc(Oc6ccc(Cl)c(F)c6)c(N)c5=O)CC4)[C@H](c4ccccc4)C3)s2)cn1` [Example 24, 5-amino-6-(4-chloro-3-fluorophenoxy)-3-[(4-hydroxy-1-{(3R,4R)-1-[4-methy-2-(6-methylpyridin-3-yl)-1,3-thiazole-5-carbonyl]-3-phenylpiperidine-4-carbonyl}piperidin-4-yl)methyl]pyrimidin-4(3H)-one] displayed a Ki on USP7 of 4 nM. In assay [1], this compound came in with an IC50 of 9.9 nM.

`COc1cc(Oc2ncn(CC3(O)CCN(C(=O)[C@@H]4CCN(C(=O)c5sc(-c6ccc(C)nc6)nc5C)C[C@H]4c4ccccc4)CC3)c(=O)c2N)ccc1F` [Example 25]: the Ki on USP7 was 2.9 nM. This compound also gave an IC50 in assay [1] of 2.3 nM.

`Cc1ccc(-c2nc(C)c(C(=O)N3CC[C@@H](C(=O)N4CCC(O)(Cn5cnc(Oc6cccc(C(F)(F)F)c6)c(N)c5=O)CC4)[C@H](c4ccccc4)C3)s2)cn1` [Example 26] yielded a Ki on USP7 of 6.1 nM. Also, the IC50 in assay [1] was found to be 20 nM.

In turn, `Cc1ccc(-c2nc(C)c(C(=O)N3CC[C@@H](C(=O)N4CCC(O)(Cn5cnc(Oc6cccc(OC(F)(F)F)c6)c(N)c5=O)CC4)[C@H](c4ccccc4)C3)s2)cn1` [Example 27, 5-amino-3-[(4-hydroxy-1-((3R,4R)-1-[4-methyl-2-(6-methylpyridin-3-yl)-1,3-thiazole-5-carbonyl]-3-phenylpiperidine-4carbonyl}piperidin-4-yl)methyl]-6-[3-(trifluoromethoxy)phenoxy]pyrimidin-4(3H)-one] showed a Ki on USP7 of 8.8 nM. The same compound displayed an IC50 in assay [1] of 17 nM.

As to `Nc1c(Oc2ccc(F)cc2)ncn(CC2(O)CCN(C(=O)[C@@H]3CCN(C(=O)c4cscn4)C[C@H]3c3ccccc3)CC2)c1=O` [Example 28, 5-amino-6-(4-fluorophenoxy)-3-[[4-hydroxy-1-[(3R,4R)-3-phenyl-1-thiazole-4-carbonyl)piperidine-4-carbonyl-4-piperidyl]methyl]pyrimidin-4-one], the affinity on USP7 corresponds to a Ki of 64.1 nM. For the same compound, the IC50 in assay [1] was found to be 138 nM.

On USP7, `Cc1nc(Br)sc1C(=O)N1CC[C@@H](C(=O)N2CCC(O)(Cn3cnc(Oc4ccc(F)cc4)c(N)c3=O)CC2)[C@H](c2ccccc2)C1` [Example 29, 5-amino-3-({1-[(3R,4R)-1-(2-bromo-4-methyl-1,3-thiazole-5-carbonyl)-3-phenylpiperidine-4-carbonyl]-4-hydroxypiperidin-4-yl}methyl)-6-(4-fluorophenoxy)pyrimidin-4(3H)-one] registered a Ki of 7.1 nM. Further, in assay [1], half-maximal inhibition (IC50) required 1.8 nM.

`Nc1c(Oc2ccc(F)cc2)ncn(CC2(O)CCN(C(=O)[C@@H]3CCN(S(=O)(=O)c4ccccc4)C[C@H]3c3ccccc3)CC2)c1=O` [Example 30, 5-amino-3-({1-[(3R,4R)-1-(benzenesulfonyl)-3-phenyl-piperidine-4-carbonyl]A-hydroxy-4-piperidyl]methyl]-6-(4-fluorophenoxy)pyrimidin-4-one] gave a Ki at USP7 of 28.4 nM. This compound also showed an IC50 in assay [1] of 9.1 nM.

On USP7, `Nc1c(Oc2ccc(F)cc2)ncn(CC2(O)CCN(C(=O)[C@@H]3CCN(C(=O)c4cccc(Br)c4)C[C@H]3c3ccccc3)CC2)c1=O` [Example 31, 5-amino-3-({1-((3R,4R)-1-(3-bromobenzoyl)-3-phenylpiperidine-4carbonyl]-4-hydroxypiperidin-4-yl)methyl)-6-(4-fluorophenoxy)pyrimidin-4(3H)-one] showed a Ki of 9.15 nM. Further, in assay [1], it took 5.45 nM to reach half-maximal inhibition (IC50).

Compound `Nc1c(Oc2ccc(F)cc2)ncn(CC2(O)CCN(C(=O)[C@@H]3CCN(C(=O)c4cncc(Br)c4)C[C@H]3c3ccccc3)CC2)c1=O` [Example 33, 5-amino-3-({1-[(3R,4R)-1-(5-bromopyridine-3-carbonyl)-3-phenylpiperidine-4-carbonyl]-4-hydroxypiperidin-4-yl}methyl)-6-(4-fluorophenoxy)pyrimidin-4(3)-one] showed a Ki at USP7 of 7.77 nM. This compound showed an IC50 in assay [1] of 2.55 nM.

In turn, `Cc1ccc(-c2cncc(C(=O)N3CC[C@@H](C(=O)N4CCC(O)(Cn5cnc(Oc6ccc(F)cc6)c(N)c5=O)CC4)[C@H](c4ccccc4)C3)c2)cn1` [Example 34, 5-amino-6-(4-fluorophenoxy)-3-({4-hydroxy-1-[(3R,4R)-1-(6′-methyl[3,3′-bipyridine]-5-carbonyl)-3-phenylpiperidine-4-carbonyl]piperidin-4-yl}methyl)pyrimidin-4(3H)-one] yielded a Ki on USP7 of 3.58 nM. In addition, half-maximal inhibition in assay [1] (IC50) required 11 nM.

With `Nc1c(Oc2ccc(F)cc2)ncn(CC2(O)CCN(C(=O)[C@@H]3CCN(C(=O)c4cncc(-c5ccccc5)c4)C[C@H]3c3ccccc3)CC2)c1=O` [Example 35, 5-amino-6-(4-fluorophenoxy)-3-({4-hydroxy-1-[(3R,4R)-3-phenyl-1-(5-phenylpyridine-3-carbonyl)piperidine-4-carbonyl]piperidin-4-yl}methyl)pyrimidin-4(3H)-one], on USP7, the Ki turned out to be 11.3 nM. Half-maximal inhibition in assay [1] (IC50) required 5 nM.

`Nc1c(Oc2ccc(F)cc2)ncn(CC2(O)CCN(C(=O)[C@@H]3CCN(C(=O)c4ccccc4)C[C@H]3c3ccccc3)CC2)c1=O` [Example 36]: the Ki on USP7 worked out at 15.1 nM. Also, the IC50 in assay [1] amounted to 8.93 nM.

With `Cn1c(C(=O)N2CC[C@@H](C(=O)N3CCC(O)(Cn4cnc(Oc5ccc(F)cc5)c(N)c4=O)CC3)[C@H](c3ccccc3)C2)cc2ccccc21` [Example 37, 5-amino-6-(4-fluorophenoxy)-3-({4-hydroxy-1-[(3R,4R)-1-(1-methyl-1H-indole-2-carbonyl)-3-phenylpiperidine-4-carbonyl]piperidin-4-yl}methyl)pyrimidin-4(3H)-one], at USP7, the affinity, expressed as Ki, was 13.6 nM. In addition, in assay [1], half-maximal inhibition (IC50) required 6.66 nM.

Take `Cn1c(C(=O)N2CC[C@@H](C(=O)N3CCC(O)(Cn4cnc(Oc5ccc(F)cc5)c(N)c4=O)CC3)[C@H](c3ccccc3)C2)ccc1-c1ccccc1` [Example 38]: the Ki at USP7 turned out to be 14 nM. For the same compound, in assay [1], the IC50 amounted to 11 nM.

On to `Nc1c(Oc2ccc(F)cc2)ncn(CC2(O)CCN(C(=O)[C@@H]3CCN(C(=O)c4sc(I)cc4F)C[C@H]3c3ccccc3)CC2)c1=O` [Example 39, 5-amino-3-({1-[(3R,4R)-1-(3-fluoro-5-iodothiophene-2-carbonyl)-3-phenylpiperidine-4-carbonyl]-4-hydroxypiperidin-4-yl}methyl)-6-(4-fluorophenoxy)pyrimidin-4(3H)-one], for which the Ki on USP7 was found to be 8.2 nM. For the same compound, half-maximal inhibition in assay [1] (IC50) was put at 13 nM.

`Cc1ccc(-c2cc(F)c(C(=O)N3CC[C@@H](C(=O)N4CCC(O)(Cn5cnc(Oc6ccc(F)cc6)c(N)c5=O)CC4)[C@H](c4ccccc4)C3)s2)cn1` [Example 40] returned a Ki on USP7 of 4.19 nM. The compound also returned an IC50 in assay [1] of 1.7 nM.
